Laboratory results from US9498463B2, “Compound obtained from gamboge resin, and medical uses of the same” (priority 2010, dated 2016).
In brackets after ≈: the same amount, converted by molar mass. Where two headings read alike, the source gives them in different places.

Legend:
[1] = system: Human umbilical venal epithelial cell (HUVEC); experiment: in vitro; conditions: HUVEC; for LC50 (50% lethal concentration): normal human cell line; for IC50: Homo sapiens, read-out: IC50 (50% inhibition concentration), HUVEC, normal human cell line
From the text: (§1) In Vitro Anti-Cancer Test
(§2) The in vitro anti-cancer test was primarily used to detect the effect of a candidate drug on cancer cell proliferation. The working principle involved therein is the ability of viable cells to shift alamarBlue (AbD Serotec, UK) from its originally non-fluorescent oxidized state (non-fluorescent, blue) to a reduced form (fluorescent, red) having fluorescence via metabolic reaction. According to the fluorescent data result generated by the alamarBlue reagent thus obtained, the proliferation of the viable cells and cell activity can be quantified for detection.
(§3) In the in vitro anti-cancer tests, a candidate drug was tested at 5 different concentrations of 0.01, 0.1, 1, 10, and 100 μg/ml, and six human cancer cell lines and a normal human cell line were used (see Table 5).

[2] = system: Human breast adenocarcinoma cell MCF7; experiment: cells
From the text: as §1, §2, §3

[3] = system: Human lung carcinoma cell A549; experiment: cells
From the text: as §1, §2, §3

[4] = system: Human hepatocellular carcinoma cell HepG2; experiment: cells; conditions: HepG2, read-out: IC50 (50% inhibition concentration), HepG2
From the text: as §1, §2, §3

[5] = system: Human promyelocytic leukemia cell HL-60; experiment: cells; conditions: HL-60, read-out: IC50 (50% inhibition concentration), HL-60
From the text: as §1, §2, §3

[6] = system: Human colon adenocarcinoma cell HT-29; experiment: cells; conditions: HT-29, read-out: IC50 (50% inhibition concentration), HT-29
From the text: as §1, §2, §3

[7] = system: Human histocytic lymphoma cell U937; experiment: cells; conditions: U-937, read-out: IC50 (50% inhibition concentration), U937
From the text: as §1, §2, §3

in vitro = experiment: in vitro
From the text: as §1, §2, §3

[8] = Homo sapiens, MCF7, read-out: IC50 (50% inhibition concentration), MCF-7
[9] = A549, read-out: IC50 (50% inhibition concentration), A549

Structure (SMILES)	LC50 (50% lethal concentration) [1]	IC50 [2, 8]	IC50 [3, 9]	IC50 [4]	IC50 [5]	IC50 [6]	IC50 [1]	IC50 [7]	other results
C=C(C)C1CC[C@@]2(C)Oc3c(CC=C(C)C)c4c(c(O)c3[C@@H]1C2O)C(=O)C1=C[C@@H]2CC3C(C)(C)OC(C/C=C(/C)C(=O)O)(C2=O)[C@@]13O4 (stereo in doubt) [Gh-1050, 2-butenoic acid, 2-methyl-4-[(1R,3aS,5S,9R,10S,13R,16aS,17S)-3a,4,5,7,10,11,12,13-octahydro-8,17-dihydroxy-3,3,13-trimethyl-15-(3-methyl-2-butenyl)-10-(1-methylethenyl)-7,18-dioxo-1,5:9,13-dimethano-1H,3H,9H-furo[3.4-g]oxocino[3.2-b]xanthen-1-yl]-,(2Z)-]	3.4 µg/mL (≈ 5.27 µM)								
CC(C)=CCC[C@@]1(C)Oc2c(c(O)c3c(c2CC=C(C)C)O[C@]24C(=C[C@@H]5CC2C(C)(C)OC4(C/C=C(/C)C(=O)O)C5=O)C3=O)C[C@H]1O (stereo in doubt) [Gh-1631, 2-butenoic acid, 2-methyl-4-[(1R,3aS,5S,10R,11R,14aS)-3a,4,5,7,10,11-hexahydro-8,10-dihydroxy-3,3,11-trimethyl-13-(3-methyl-2-butenyl)-11-(4-methyl-3-pentenyl)-7,15-dioxo-1,5-methano-1H,3H,9H-furo[3.4-g]pyrano[3.2-b]xanthen-1-yl]-,(2Z)-]		0.14 µg/mL	0.14 µg/mL (≈ 0.216 µM)	0.85 µg/mL (≈ 1.31 µM)	0.19 µg/mL (≈ 0.294 µM)	6.1 µg/mL (≈ 9.43 µM)	0.58 µg/mL (≈ 0.897 µM)	0.18 µg/mL (≈ 0.278 µM)	
CC(C)=CCc1c2c(c(O)c3c1O[C@]14C(=C[C@@H]5CC1C(C)(C)OC4(C/C=C(\C)C(=O)O)C5=O)C3=O)C=CC(C)(C/C=C\C(C)(C)O)O2 (stereo in doubt) [Gh-3332, 2-butenoic acid, 2-methyl-4-[(1R,3aS,5S,14aS)-3a,4,5,7-tetrahydro-8-hydroxy-3,3,11-trimethyl-13-(3-methyl-2-butenyl)-11-(4-hydroxy-4-methyl-2Z-pentenyl)-7,15-dioxo-1,5-methano-1H,3H,11H-furo[3.4-g]pyrano[3.2-b]xanthen-1-yl]-,(2E)-]	3.3 µg/mL (≈ 5.12 µM)								
CC(C)=CCC[C@@]1(C)C=Cc2c(O)c3c(c(CC(O)C(C)(C)O)c2O1)O[C@]12C(=C[C@@H]4CC1C(C)(C)OC2(C/C=C(/C)C(=O)O)C4=O)C3=O (stereo partly drawn) [Gh-1036, 2-butenoic acid, 2-methyl-4-[(1R,3aS,5S,11S,14aS)-3a,4,5,7-tetrahydro-8-hydroxy-3,3,11-trimethyl-13-(2,3-dihydroxy-3-methylbutyl)-11-(4-methyl-3-pentenyl)-7,15-dioxo-1,5-methano-1H,3H,11H-furo[3.4-g]pyrano[3.2-b]xanthen-1-yl]-,(2Z)-]		0.35 µg/mL	0.22 µg/mL (≈ 0.332 µM)	0.88 µg/mL (≈ 1.33 µM)	0.45 µg/mL (≈ 0.679 µM)	1.4 µg/mL (≈ 2.11 µM)	0.46 µg/mL (≈ 0.694 µM)	0.29 µg/mL (≈ 0.438 µM)	
CC(C)=CCC[C@]1(C)C=Cc2c(O)c3c(c(CC(O)C(C)(C)O)c2O1)O[C@]12C(=C[C@@H]4CC1C(C)(C)OC2(C/C=C(/C)C(=O)O)C4=O)C3=O (stereo partly drawn) [Gh-1052, 2-butenoic acid, 2-methyl-4-[(1R,3aS,5S,11R,14aS)-3a,4,5,7-tetrahydro-8-hydroxy-3,3,11-trimethyl-13-(2,3-dihydroxy-3-methylbutyl)-11-(4-methyl-3-pentenyl)-7,15-dioxo-1,5-methano-1H,3H,11H-furo[3.4-g]pyrano[3.2-b]xanthen-1-yl]-,(2Z)-]		0.52 µg/mL	0.46 µg/mL (≈ 0.694 µM)	1.2 µg/mL (≈ 1.81 µM)	0.23 µg/mL (≈ 0.347 µM)	1.6 µg/mL (≈ 2.41 µM)	0.47 µg/mL (≈ 0.709 µM)	0.22 µg/mL (≈ 0.332 µM)	
C=C(C)C1CC[C@]2(C)C[C@H]1c1c(O)c3c(c(CC=C(C)C)c1O2)O[C@]12C(=C[C@@H]4CC1C(C)(C)OC2(C/C=C(/C)C(=O)O)C4=O)C3=O (stereo partly shown) [Gh-2603-2, gambogellic acid]									IC50 ([3]; A549, read-out: IC50 (50% inhibition concentration)): 0.2 µg/mL (≈ 0.318 µM); CC50 (in vitro): 1.7 µg/mL (≈ 2.7 µM)
CC(C)=CCc1c2c(c(O)c3c1O[C@]14C(=C[C@@H]5CC1C(C)(C)OC4(C/C=C(/C)C(=O)O)C5=O)C3=O)C=C[C@@](C)(CCC(O)C(C)(C)O)O2 (stereo partly drawn) [Gh-3261, 2-butenoic acid, 2-methyl-4-[(1R,3aS,5S,11R,14aS)-3a,4,5,7-tetrahydro-8-hydroxy-3,3,11-trimethyl-13-(3-methyl-2-butenyl)-11-(3,4-dihydroxy-4-methylpentyl)-7,15-dioxo-1,5-methano-1H,3H,11H-furo[3.4-g]pyrano[3.2-b]xanthen-1-yl]-,(2Z)-]		0.36 µg/mL	0.19 µg/mL (≈ 0.287 µM)	1 µg/mL (≈ 1.51 µM)	1.9 µg/mL (≈ 2.87 µM)	1.1 µg/mL (≈ 1.66 µM)	0.29 µg/mL (≈ 0.438 µM)	0.11 µg/mL (≈ 0.166 µM)	
CC(C)=CCc1c2c(c(O)c3c1O[C@]14C(=C[C@@H]5CC1C(C)(C)OC4(C/C=C(/C)C(=O)O)C5=O)C3=O)C=C[C@](C)(CCC(O)C(C)(C)O)O2 (stereo partly drawn) [Gh-3271, 2-butenoic acid, 2-methyl-4-[(1R,3aS,5S,11S,14aS)-3a,4,5,7-tetrahydro-8-hydroxy-3,3,11-trimethyl-13-(3-methyl-2-butenyl)-11-(3,4-dihydroxy-4-methylpentyl)-7,15-dioxo-1,5-methano-1H,3H,11H-furo[3.4-g]pyrano[3.2-b]xanthen-1-yl]-,(2Z)-]		0.16 µg/mL	0.25 µg/mL (≈ 0.377 µM)	0.46 µg/mL (≈ 0.694 µM)	3 µg/mL (≈ 4.53 µM)	1.8 µg/mL (≈ 2.72 µM)	0.42 µg/mL (≈ 0.634 µM)	0.11 µg/mL (≈ 0.166 µM)	
CC(C)=CCc1c2c(c(O)c3c1O[C@]14C(=C[C@@H]5CC1C(C)(C)OC4(C/C=C(/C)C(=O)O)C5=O)C3=O)C=C[C@@](C)(C/C=C/C(C)(C)O)O2 [Gh-3272, 2-butenoic acid, 2-methyl-4-[(1R,3aS,5S,11R,14aS)-3a,4,5,7-tetrahydro-8-hydroxy-3,3,11-trimethyl-13-(3-methyl-2-butenyl)-11-(4-hydroxy-4-methyl-2E-pentenyl)-7,15-dioxo-1,5-methano-1H,3H,11H-furo[3.4-g]pyrano[3.2-b]xanthen-1-yl]-,(2Z)-]	2.5 µg/mL (≈ 3.88 µM)								
C=C(C)C(O)CC[C@]1(C)C=Cc2c(O)c3c(c(CC=C(C)C)c2O1)O[C@]12C(=C[C@@H]4CC1C(C)(C)OC2(C/C=C(/C)C(=O)O)C4=O)C3=O (stereo partly drawn) [Gh-3291, 2-butenoic acid, 2-methyl-4-[(1R,3aS,5S,11R,14aS)-3a,4,5,7-tetrahydro-8-hydroxy-3,3,11-trimethyl-13-(3-methyl-2-butenyl)-11-(3-hydroxy-4-methyl-4-pentenyl)-7,15-dioxo-1,5-methano-1H,3H,11H-furo[3.4-g]pyrano[3.2-b]xanthen-1-yl]-,(2Z)-]	1.4 µg/mL (≈ 2.17 µM)								
CC(C)=CCC[C@@]1(C)C=Cc2c(O)c3c(c(C(O)C4OC4(C)C)c2O1)O[C@]12C(=C[C@@H]4CC1C(C)(C)OC2(C/C=C(/C)C(=O)O)C4=O)C3=O (stereo partly drawn) [Gh-3311, 2-butenoic acid, 2-methyl-4-[(1R,3aS,5S,11S,14aS)-3a,4,5,7-tetrahydro-8-hydroxy-3,3,11-trimethyl-13-(1-hydroxy-2,3-epoxy-3-methylbutyl)-11-(4-methyl-3-pentenyl)-7,15-dioxo-1,5-methano-1H,3H,11H-furo[3.4-g]pyrano[3.2-b]xanthen-1-yl]-,(2Z)-]	13.9 µg/mL (≈ 21 µM)								
CC(C)=CCC[C@@]1(C)C=Cc2c(O)c3c(c(CC4OC4(C)C)c2O1)O[C@]12C(=C[C@@H]4CC1C(C)(C)OC2(C/C=C(/C)C(=O)O)C4=O)C3=O (stereo partly drawn) [Gh-3351, 2-butenoic acid, 2-methyl-4-[(1R,3aS,5S,11S,14aS)-3a,4,5,7-tetrahydro-8-hydroxy-3,3,11-trimethyl-13-(2,3-epoxy-3-methylbutyl)-11-(4-methyl-3-pentenyl)-7,15-dioxo-1,5-methano-1H,3H,11H-furo[3.4-g]pyrano[3.2-b]xanthen-1-yl]-,(2Z)-]	3.3 µg/mL (≈ 5.12 µM)								
CC(C)=CCC[C@]1(C)C=Cc2c(O)c3c(c(CC4OC4(C)C)c2O1)O[C@]12C(=C[C@@H]4CC1C(C)(C)OC2(C/C=C(/C)C(=O)O)C4=O)C3=O (stereo partly drawn) [Gh-3352, 2-butenoic acid, 2-methyl-4-[(1R,3aS,5S,11R,14aS)-3a,4,5,7-tetrahydro-8-hydroxy-3,3,11-trimethyl-13-(2,3-epoxy-3-methylbutyl)-11-(4-methyl-3-pentenyl)-7,15-dioxo-1,5-methano-1H,3H,11H-furo[3.4-g]pyrano[3.2-b]xanthen-1-yl]-,(2Z)-]	0.85 µg/mL (≈ 1.32 µM)								
CC(C)=CCC[C@]1(C)C=Cc2c(O)c3c(c(C(O)C4OC4(C)C)c2O1)O[C@]12C(=C[C@@H]4CC1C(C)(C)OC2(C/C=C(/C)C(=O)O)C4=O)C3=O (stereo partly drawn) [Gh-3353, 2-butenoic acid, 2-methyl-4-[(1R,3aS,5S,11R,14aS)-3a,4,5,7-tetrahydro-8-hydroxy-3,3,11-trimethyl-13-(1-hydroxy-2,3-epoxy-3-methylbutyl)-11-(4-methyl-3-pentenyl)-7,15-dioxo-1,5-methano-1H,3H,11H-furo[3.4-g]pyrano[3.2-b]xanthen-1-yl]-,(2Z)-]	8.4 µg/mL (≈ 12.7 µM)								
CO[C@@]12[C@H](COC(N)=O)C3=C(C(=O)C(C)=C(N)C3=O)N1C[C@@H]1N[C@@H]12 [Mitomycin, mitomycin, reference compound]									IC50 ([2]; read-out: IC50 (50% inhibition concentration), MCF-7, positive control): 150 nM
